Source: US20210255184A1, “Biosensor Device and Methods” (The New Zealand Institute for Plant and Food Research …, priority 2018, published 2021)

Biological target: T1, Or22a (Drosophila melanogaster, UniProt P81909)
T1 construct: his-tag; made in house; host or cells: baculovirus-infected Sf9 cells
T1 sequence (P81909 1-397): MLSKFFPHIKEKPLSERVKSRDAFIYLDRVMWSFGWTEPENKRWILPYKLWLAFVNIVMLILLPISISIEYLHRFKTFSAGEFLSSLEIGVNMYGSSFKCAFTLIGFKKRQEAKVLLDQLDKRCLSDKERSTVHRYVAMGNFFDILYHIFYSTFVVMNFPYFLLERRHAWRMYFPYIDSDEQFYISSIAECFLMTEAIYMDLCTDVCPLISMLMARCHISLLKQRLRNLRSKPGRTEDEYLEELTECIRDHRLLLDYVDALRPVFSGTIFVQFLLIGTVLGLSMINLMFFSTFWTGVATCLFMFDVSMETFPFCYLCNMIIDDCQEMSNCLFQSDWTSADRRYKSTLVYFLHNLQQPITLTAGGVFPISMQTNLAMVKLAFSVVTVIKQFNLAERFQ
Assay: EIS sensor, Or22a liposomes on gold electrode
Type: biochemical
Protocol: Prior to their use, liposomes were defrosted on ice and then destabilized by incubating with 0.2% CHAPS for 15 min at room temperature. Then 200 μg of purified odorant receptor^28 was added to 1 mg of liposomes and rotated at 10 rpm for 1 h at room temperature. Excess detergent was removed by four additions of 25 mg of Bio-Beads SM-2 (Bio-Rad, USA) and incubation at 4° C. for 30 min, 2 h, overnight and a further 2 h respectively. The Bio-Beads were removed after each incubation period. The OrX or OrX/Orco integrated liposomes were pelleted by centrifugation at 100,000 g for 1 h, and were resuspended in 500 μL of rehydration buffer. Integration of OrXs and Orco into liposomes was assessed by density gradient ultracentrifugation (DGU) using Accudenz (Accurate Chemical & Scientific Corporation, USA). The integrated liposomes were brought to 40% Accudenz by the addition of an equal volume of 80% Accudenz solution, placed at the bottom of an ultra-centrifugation tube, and overlaid with 30% Accudenz solution, and DGU buffer (25 mM HEPES pH 7.5, 100 mM NaCl, 10% glycerol). The sample was then centrifuged at 100,000 g for 4 h at 4° C. Liposomes will float to the top of the gradient after Accudenz DGU due to their low density.
2 mM MHA was prepared by dissolving 1.36 μl of MHA in 5 ml ethanol (AR grade). The cleaned electrodes were immersed into MHA solution and incubated overnight. The next day, all the electrodes were washed with ethanol and deionised water thoroughly in order to remove the unreacted acid. A 2:1 mol:mol ratio of EDC:NHS (100 mM EDC, 50 mM NHS) was prepared in 2 ml PBS (pH=6.5) solution. Then, the electrodes were covered in 100 μl of this solution at 28° C. for an hour to activate the carboxylic (COOH) groups of the MHA.
PBS solution was prepared by immersing one tablet of PBS in 200 ml of milli-Q water (according to manufacturers instructions) and filtered using 0.2-μm syringe filter. The pH of the prepared buffer solution was measured with a pH meter. OrX liposomes or OrX/Orco liposomes were diluted 100 fold in PBS buffer solution (pH=7.4) and the COOH-activated electrodes were incubated in that buffer solution at room temperature for one hour. Then, the electrodes were washed extensively with PBS buffer solution to wash out any unbound liposomes.
PBS (pH=7.4) was used as an electrolyte to conduct electrochemical measurements. PBS buffer was degassed for about 30 minutes prior to electrochemical measurements. Odorant solutions of concentration ranging from 1 aM to 1 μM were prepared by sequential dilution in PBS solution containing 1% DMSO. OR immobilized electrodes were incubated in relevant odorant solution for ˜30 minutes each and washed gently with PBS before EIS measurements.
EIS measurements were done in a 3 electrode cell containing Ag/AgCl (3 M NaCl, 0.209 V vs. SHE) reference electrode, coiled platinum wire as a counter electrode and the gold disk as a working electrode at a fixed voltage of −0.7 using PalmSens potentiostat. Degassed PBS was used as an electrolyte.
EIS measurements were performed on gold electrodes functionalised with OrX liposomes (either Or10a or Or22a), OrX/Orco liposomes, or empty liposomes prior to and after target ligand or control ligand incubation with increasing concentrations (1 aM to 100 μM). Dose response curves were obtained by defining sensor response as −(ΔRp/R^op) versus log[C(Ligand)]. FIG. 4a presents the EIS response in terms of Nyquist plot for the Or10a liposome functionalized sensors when exposed to a solution containing one of the known target ligands of Or10a, methyl salicylate, at various concentrations. […] The dose response curve (FIG. 4b) was obtained by plotting the change in polarization resistance −(ΔRp/R^op) versus log[conc(Ligand)], as the sensor response. Here, Rp is the polarization resistance after Or10a liposome-target interaction and R^op is the polarization resistance before Or10a liposome-target interaction.

## CCCCCC(=O)OC [methyl hexanoate]
EIS dose response, ligand 1 aM to 100 μM
  limit of detection (LOD): 1 fM
Table 1, approximate
  EC50: ~1 pM
Table 1, * estimated visually from dose response graph
  Sensitivity limit: ~10^−15 M*
Table 3
  Detection Range: 10^−15 to 10^−5 M
Table 3, fitted dose response
  EC50: 1.1 pM

## COC(=O)c1ccccc1O [methyl salicylate]
EIS dose response
  sensor response to control ligand: negligible response
